These results are taken from article PMC11639629, “Synthesis and Biological Evaluation of Deoxycyclophellitols as Human Retaining β‐Glucosidase Inhibitors” (Chemistry (Weinheim an Der Bergstrasse, Germany), 2024).

Assay [1] addresses T1, GBA2 (Homo sapiens, UniProt Q9HCG7).
T1 sequence (Q9HCG7 1-927): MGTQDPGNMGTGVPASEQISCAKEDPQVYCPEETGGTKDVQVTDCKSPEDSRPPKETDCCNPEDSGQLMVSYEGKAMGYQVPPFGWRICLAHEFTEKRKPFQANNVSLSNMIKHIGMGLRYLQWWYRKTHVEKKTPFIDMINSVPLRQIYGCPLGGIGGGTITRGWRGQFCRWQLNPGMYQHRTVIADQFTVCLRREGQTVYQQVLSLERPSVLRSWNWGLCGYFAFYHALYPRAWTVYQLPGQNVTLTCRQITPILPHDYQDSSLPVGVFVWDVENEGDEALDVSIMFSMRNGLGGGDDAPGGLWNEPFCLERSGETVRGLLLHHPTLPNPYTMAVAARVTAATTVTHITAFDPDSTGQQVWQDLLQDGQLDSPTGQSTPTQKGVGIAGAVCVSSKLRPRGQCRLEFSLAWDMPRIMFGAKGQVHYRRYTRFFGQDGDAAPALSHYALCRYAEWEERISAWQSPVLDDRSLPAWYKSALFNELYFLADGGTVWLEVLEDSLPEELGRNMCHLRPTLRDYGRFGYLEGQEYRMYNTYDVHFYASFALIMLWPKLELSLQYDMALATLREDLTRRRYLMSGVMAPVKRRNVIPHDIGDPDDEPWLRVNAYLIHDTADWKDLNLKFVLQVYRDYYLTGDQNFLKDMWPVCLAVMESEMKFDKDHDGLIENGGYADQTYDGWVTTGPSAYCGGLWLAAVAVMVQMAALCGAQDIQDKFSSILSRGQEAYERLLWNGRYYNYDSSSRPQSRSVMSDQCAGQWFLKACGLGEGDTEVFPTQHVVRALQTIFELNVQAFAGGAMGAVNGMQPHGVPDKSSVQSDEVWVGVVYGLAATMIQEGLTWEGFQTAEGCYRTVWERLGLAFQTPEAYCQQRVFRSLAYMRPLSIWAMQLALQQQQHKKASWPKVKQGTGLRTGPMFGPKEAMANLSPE
Experimental: (§1) Next, all new compounds were screened on their GBA1/GBA2/GBA3 inhibitory potency in a fluorogenic substrate assay (enzyme‐mediated hydrolysis of the fluorogenic substrate, 4‐methylumbelliferyl β‐D‐glucopyranoside; 4‐MU‐β‐D‐Glu). […] The IC50 values were determined after incubation of each individual compound with either recombinant human GBA1 (rhGBA1) or lysates of HEK293T cells overexpressing GBA2 or GBA3.
(§2) All assays were performed in 96-well plates (Greiner, black, flat-bottomed) at 37 °C. For GBA1, 3.5 ng of rhGBA1 (Imiglucerase,
(§3) Sanofi Genzyme) was dissolved in 12.5 μL McIlvaine buffer (150 mM citric acid-Na2HPO4, pH 5.2), supplemented with 0.1%
(§4) (v/v) Triton X-100, and 0.2% (w/v) sodium taurocholate, 0.1% (w/v) bovine serum albumin (BSA). Lysates of GBA1/GBA2 KO
(§5) HEK293T cells overexpressing GBA2 or GBA3 were prepared by sonication on ice with Polytron PT 1300D son icator
(§6) (Kinematica) in potassium phosphate buffer (25 mM K2HPO4/KH2PO4, pH 6.5, supplemented with 0.1% (v/v) Triton X-100 and protease inhibitor cocktail (EDTA-free, Roche)). The lysates were diluted to 12.5 μL in McIlvaine buffer (150 mM, pH 5.8 for
(§7) GBA2 or pH 6.0 for GBA3) supplemented with 0.1% (w/v) bovine serum albumin (BSA). The enzymes were incubated with 12.5
(§8) μL solution of inhibitors in McIlvaine buffer (150 mM, pH appropriate for each enzyme, final concentration 1% DMSO) at 37 °C
(§9) for 30 minutes (-configured aziridines and ABP 3) or 3 hours (epoxides and -configured aziridines). This was followed by
(§10) incubation of the samples with 100 μL of fluorogenic substrate mixtures for 30 minutes. The substrate mixtures diluted in
(§11) McIlvaine buffer (supplemented with 0.1% (w/v) BSA) at optimal pH for each enzyme were as follows: GBA1, 3.75 mM 4-MU-
(§12) -D-glucopyranoside (Glycosynth) at pH 5.2, supplemented with 0.2% (w/v) sodium taurocholate, 0.1% (v/v) Triton X-100, 0.1%
(§13) (w/v) bovine serum albumin (BSA); GBA2, 4-MU--D-glucopyranoside (3.75 mM) at pH 5.8; GBA3, 4-MU--D-glucopyranoside
(§14) (3.75 mM) at pH 6.0. After stopping the enzyme reaction with 200 μL 1 M NaOH-glycine (pH 10.3), 4-methylumbelliferone
(§15) fluorescence was measured with a fluorimeter LS55 (Perkin Elmer) with λEX 366 nm and λEM 445 nm. Enzyme activities were
(§16) determined by subtraction of background (measured for incubations without enzyme), normalized with enzyme activity of the
(§17) control sample (vehicle incubation) and curve-fitted to inhibitor concentrations using GraphPad Prism 9.0 software by the
(§18) [inhibitor] vs. response - variable slope (four parameters) method to determine IC 50 values.
(§19) values from triplicate or duplicate experiments (n = 3 biological replicates) and error ranges indicate standard deviation (SD).

Assay [2] has as its system endogenous GBA1 and overexpressed human GBA2 and GBA3. Nature of the assay: ABP labeling (ABPP) in lysates of GBA2/GBA3 overexpressing HEK293T cells, selectivity pattern. Format: binding. To be noted: pH 6.0, 30 min. Here is the method:
As a negative control, lysates of HEK293T cells with knocked‐out (KO) expression of GBA1 and GBA2 were incubated with a high concentration of each ABP. The observed selectivity patterns of most compounds were in line with the results of the fluorogenic substrate assay except for 50, which labeled GBA1 less potently than expected. […] For instance, besides labeling GBA2 and GBA3 (104.6 kDa and 53.6 kDa respectively), ABP 5 labels three major off‐target proteins (~45 kDa, ~55 kDa, and ~65 kDa), and these bands appear also in the experiments with the other deoxygenated ABPs (Figure 3B). Possibly, the deoxygenated ABPs are more hydrophobic compared to ABPs 1 and 3, causing them to more readily associate with hydrophobic protein patches and subsequently engage in reactions.
described previously.6,16
protease inhibitor cocktail (EDTA-free, Roche)).
The enzymes were incubated with 12.5
The substrate mixtures diluted in
with BODIPY fluorescent ABP 2.

The target of assay [3] is T2, recombinant human GBA1 (rhGBA1) (Homo sapiens, UniProt P04062, R534H).
T2 sequence (P04062 40-536 R534H): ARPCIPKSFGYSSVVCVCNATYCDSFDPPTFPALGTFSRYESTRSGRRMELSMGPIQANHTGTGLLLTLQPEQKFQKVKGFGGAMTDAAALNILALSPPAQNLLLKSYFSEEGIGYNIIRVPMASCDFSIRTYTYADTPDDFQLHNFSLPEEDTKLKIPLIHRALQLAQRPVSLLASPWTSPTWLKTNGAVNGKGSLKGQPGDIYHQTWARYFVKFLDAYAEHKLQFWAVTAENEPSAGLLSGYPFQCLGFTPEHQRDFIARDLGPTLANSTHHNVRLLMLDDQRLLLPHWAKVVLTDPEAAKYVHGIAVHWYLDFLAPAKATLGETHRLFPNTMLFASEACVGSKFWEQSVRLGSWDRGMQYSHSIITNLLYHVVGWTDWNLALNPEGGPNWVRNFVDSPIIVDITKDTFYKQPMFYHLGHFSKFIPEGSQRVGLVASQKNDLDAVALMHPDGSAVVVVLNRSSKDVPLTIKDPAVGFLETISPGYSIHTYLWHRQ
Nature of the assay: fluorogenic substrate assay (4-MU-β-D-Glu hydrolysis), rhGBA1.
Experimental: as §1, §2, §3, §4, §5, §6, §7, §8, §9, §10, §11, §12, §13, §14, §15, §16, §17, §18, §19

Assay [4] addresses T3, GBA3 (Homo sapiens, UniProt Q9H227).
T3 sequence (Q9H227 1-469): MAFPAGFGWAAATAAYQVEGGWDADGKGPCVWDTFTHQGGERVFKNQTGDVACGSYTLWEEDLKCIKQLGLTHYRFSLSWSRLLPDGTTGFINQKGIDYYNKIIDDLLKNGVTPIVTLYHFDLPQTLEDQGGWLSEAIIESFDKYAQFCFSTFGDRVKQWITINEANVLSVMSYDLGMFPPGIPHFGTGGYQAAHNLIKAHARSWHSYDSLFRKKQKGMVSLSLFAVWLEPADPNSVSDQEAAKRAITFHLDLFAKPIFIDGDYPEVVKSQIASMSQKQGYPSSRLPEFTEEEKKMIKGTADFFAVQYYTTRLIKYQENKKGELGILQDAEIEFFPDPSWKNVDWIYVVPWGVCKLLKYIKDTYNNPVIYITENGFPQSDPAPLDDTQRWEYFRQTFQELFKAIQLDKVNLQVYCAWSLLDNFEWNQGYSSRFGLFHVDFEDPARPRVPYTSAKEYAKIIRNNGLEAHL
Experimental: as §1, §2, §3, §4, §5, §6, §7, §8, §9, §10, §11, §12, §13, §14, §15, §16, §17, §18, §19

Each structure is given as a SMILES string.

On to `CN1/C(=C/C=C/C=C/C2=[N+](CCCCCC(=O)NCc3cn(CCCCCCCCN4[C@@H]5[C@H](CO)C[C@H](O)[C@@H](O)[C@@H]54)nn3)c3ccccc3C2(C)C)C(C)(C)c2ccccc21` (stereo partly drawn) [Compound 4], for which the figures for the IC50 in assay [1], in assay [3] and in assay [4] were 0.24 ± 0.03 µM, 0.26 ± 0.01 µM and 0.26 ± 0.06 µM, respectively. In assay [2], the “target glucosidases labeled by the ABP” value was “label all three target glucosidases”.

Regarding `CN1/C(=C/C=C/C=C/C2=[N+](CCCCCC(=O)NCc3cn(CCCCCCCCN4[C@@H]5[C@H](CO)C[C@H](O)C[C@@H]54)nn3)c3ccccc3C2(C)C)C(C)(C)c2ccccc21` (stereo partly drawn) [Compound 5], the IC50 is 0.23 ± 0.01 µM in assay [1], 32 ± 3 µM in assay [3] and 1.23 ± 0.08 µM in assay [4]. For the same compound, the “target glucosidases labeled by the ABP” value in assay [2] is reported as “GBA2 and, to a lesser extent, GBA3”.

Regarding `CN1/C(=C/C=C/C=C/C2=[N+](CCCCCC(=O)NCc3cn(C[C@@H]4[C@@H](O)[C@H](O)[C@@H](O)[C@@H]5O[C@H]45)nn3)c3ccccc3C2(C)C)C(C)(C)c2ccccc21` [Compound 3], the IC50 in assay [1] was over 15 µM; in assay [3], 0.042 ± 0.004 µM; in assay [4], over 15 µM.

`CN1/C(=C/C=C/C=C/C2=[N+](CCCCCC(=O)NCc3cn(CCCCCCCCN4[C@@H]5[C@H](CO)[C@@H](O)[C@H](O)[C@@H](O)[C@@H]54)nn3)c3ccccc3C2(C)C)C(C)(C)c2ccccc21` (stereo partly drawn) [Compound 1]: the IC50 in assay [1] came out at 0.145 ± 0.026 µM; in assay [3], 0.00054 ± 0.00021 µM; in assay [4] it was 0.031 ± 0.005 µM. For the same compound, the “target glucosidases labeled by the ABP” value in assay [2] was “modifies all three GBAs”.

As usually defined, the IC50 is the concentration at which inhibition is half-maximal.
